These results are taken from patent publication US6329523A, “Compounds having a plurality of nitrogenous substitutents” (ISIS Pharmaceuticals, Inc., priority 1999, dated 2001).

As a reminder, the MIC is the least concentration at which growth counts as inhibited. Broadly, the inhibition is the relative decrease from the control value, in per cent.

≈ marks a conversion by molar mass, not a printed value.

Holding throughout (format): cell-based
One assay concerns Streptococcus pyogenes. Put plainly: MIC / bacterial growth assay, Streptococcus pyogenes. As to conditions: for inhibition at 100 µM: read-out: inhibition in the S. pyogenes procedure. Here is the method: S. pyogenes [American Type Culture Collection (ATCC) #14289] is used in this bacterial growth assay. To initiate the exponential phase of bacterial growth prior to the assay, a sample of bacteria is grown for 6 hours in Todd Hewitt Broth (Difco 0492-17-6) at 37° C. then re-inoculated into fresh media and grown overnight at 37° C. The bacterial cells are collected by centrifugation for 10 minutes at 3200 rpm, diluted and absorbance read at 595 nm. Bacteria diluted in 233 Todd-Hewitt Broth ([…]) are added to the compound mixtures (75 μL) for a total volume of 150 μL. The assays are performed in 96-well microplates with approximately 1×10^4 colony forming units (CFU) per well. The plates are incubated at 37° C. and growth monitored over a 24 hour period by measuring the optical density at 595 nm using a BioRad model 3550 UV microplate reader. The percentage of growth relative to a well containing no compound is determined. Ampicillin and tetracycline antibiotic controls are concurrently tested in each screening assay.
(§1) Compounds are assayed in duplicate at a single dose. Compounds which show inhibitory activity are re-tested in duplicate at multiple doses to determine minimum inhibitory concentration (MIC).

A further assay deals with E. coli imp-. Put plainly: MIC / bacterial growth assay, E. coli imp-. As to conditions: Escherichia coli. Here is the method: The strain E. coli imp- obtained from Spencer Benson (Sampson, B. A., Misra, R. & Benson, S. A., Genetics, 1989, 122, 491-501, Identification and characterization of a new gene of Escherichia coli K-12 involved in outer membrane permeability) is used in this bacterial growth assay. To initiate the exponential phase of bacterial growth prior to the assay, a sample of bacteria is grown for 6 hours in Mueller Hinton II Broth (BBL 12322) at 37° C. then re-inoculated into fresh media and grown overnight at 37° C. The bacterial cells are collected by centrifugation for 10 minutes at 3200 rpm, diluted and absorbance read at 595 nm. Bacteria diluted in 2×Mueller Hinton II Broth (75 μL) are added to the compound mixtures (75μL) for a total volume of 150 μL. The assays are performed in 96-well microplates with approximately 1×10^4 colony forming units (CFU) per well. The plates are incubated at 37° C. and growth monitored over a 24 hour period by measuring the optical density at 595 nm using a BioRad model 3550 UV microplate reader. The percentage of growth relative to a well containing no compound is determined. Ampicillin and tetracycline antibiotic controls are concurrently tested in each screening assay.
as §1

The test system of a further assay is C. albicans. Put plainly: antifungal MIC assay, C. albicans. As to conditions: Candida albicans, 24 h; MIC ASSAYS table; unit inferred.

Procedure for C. albicans: Yeast diluted in 2×YM Broth (75 μL) are added to the compound mixtures (75 μL) for a total volume of 150 μL. The assays are performed in 96-well microplates with approximately 1×10^4 cells per well. The plates are incubated at 25° C. and growth monitored at 48 hours by visual inspection of yeast growth. Amphotericin B anti-fungal control is concurrently tested in each screening assay.
Compounds are assayed in duplicate at multiple doses to determine minimum inhibitory concentration (MIC).

On to `OCCCN(CCN(Cc1ccccc1)Cc1cccc(CN(Cc2ccccc2)Cc2ccccc2)n1)Cc1ccccc1` [Compound 9, 2-(N,N-dibenzylaminomethylene)-6-{[N1-[benzyl(methyl-1-yl)]-N2-(benzyl)-1-propanol-3-yl]-1,2-diaminoethane}pyridine], for which the MIC with Streptococcus pyogenes (24 h, MIC ASSAYS table, first round or parent libraries, unit inferred, read-out: MIC S. pyrogenes) fell in the range of 5 to 25 µM (≈ 2.99 to 15 µg/mL); in the assay on E. coli imp- (24 h, read-out: MIC E. coli) it was 5 to 25 µM (≈ 2.99 to 15 µg/mL); against C. albicans, 1 to 5 µM (≈ 0.599 to 2.99 µg/mL).
In the case of `NC(=O)CN(Cc1cccc(C(F)(F)F)c1)Cc1cccc(CN(CCNCCCO)Cc2cccc(C(F)(F)F)c2)n1` [Example 137], the figures for the inhibition at 100 µM with Streptococcus pyogenes and with E. coli imp- (read-out: inhibition in the E. coli procedure) were 95% and 87%, respectively.
On to `N=C(N)NCc1cccc(CN(CCNCCCO)Cc2cccc(C(F)(F)F)c2)n1` [Example 142], for which, in the assay on Streptococcus pyogenes, the inhibition at 100 µM amounted to 95%.
